According to the NIST ThermoML archive (doi:10.1021/je9010486):

Assay: cn = amount concentration of the nth substance listed, in mol/dm3
Conditions: 101 kPa, Liquid

OC[C@@H](O)[C@@H](O[C@H]1O[C@H](CO)[C@@H](O)[C@H](O)[C@H]1O)[C@H](O)[C@@H](O)CO [4-O-α-D-glucopyranosyl-D-glucitol] + O
Conditions	mass density, 293.15 K [kg/m3]	mass density, 303.15 K [kg/m3]	mass density, 313.15 K [kg/m3]	mass density, 323.15 K [kg/m3]	viscosity, 293.15 K [mPa·s]	viscosity, 303.15 K [mPa·s]	viscosity, 313.15 K [mPa·s]	viscosity, 323.15 K [mPa·s]
c1 = 0.1	1009.45	1007.32	1003.78	999.68	1.274	0.8869	0.6982	0.6083
c1 = 0.2	1018.37	1016.24	1012.7	1008.6	1.381	0.9747	0.7706	0.652
c1 = 0.3	1027.29	1025.16	1021.62	1017.52	1.513	1.104	0.8464	0.7175
c1 = 0.4	1036.21	1034.08	1030.54	1026.44	1.66	1.225	0.9455	0.7827
c1 = 0.5	1045.13	1043	1039.46	1035.36	1.848	1.361	1.06	0.8723
c1 = 0.6	1054.05	1051.92	1048.38	1044.28	2.009	1.536	1.177	0.9616
c1 = 0.7	1062.97	1060.84	1057.3	1053.2	2.173	1.684	1.301	1.061
c1 = 0.8	1071.89	1069.76	1066.22	1062.12	2.304	1.825	1.438	1.15
c1 = 0.9	1080.81	1078.68	1075.14	1071.04	2.49	1.947	1.591	1.242
c1 = 1	1089.73	1087.6	1084.06	1079.96	2.68	2.132	1.741	1.385
